From patent US20240197702A1, “ANTISEPTIC-ANTIBIOTIC GUMBOS EFFECTIVE AGAINST GRAM-NEGATIVE PATHOGENS” (priority 2020, published 2024)
Where a name gives a salt, the structure may show the parent alone.

Tests used:
[1] = test system: N. gonorrhoeae ATCC 49226; test: MIC by micro-broth dilution against N. gonorrhoeae ATCC 49226; assay type: cell-based, Neisseria gonorrhoeae; conditions: Neisseria gonorrhoeae, ATCC49226; ATCC 49226, micro-broth dilution, 20-24 hours
Experimental: (§1) Minimum Inhibitory Concentrations of GUMBOS against N. gonorrhoeae: Clinical isolates of N. gonorrhoeae and N. gonorrhoeae ATCC 49226 were obtained from Louisiana State University Health Sciences Center New Orleans HIV Outpatient Clinic. Minimum inhibitory concentrations (MICs) of GUMBOS, constituent parent drugs, azithromycin, and unreacted mixtures were determined using micro-broth dilution in 96-well plates. […] Stock solutions were diluted to a known working concentration and 100 μL were added to the first row of the plate. For susceptibility testing of N. gonorrhoeae, media was prepared according to methods reported by Wade and […]. Euro. Microbiol. Soc. Microbiol. […] This liquid medium allowed dense growth of N. gonorrhoeae for use in broth dilution tests. Protein-free liquid media (100 μL) were added to each well and two-fold dilutions were performed. The antibiotic containing wells were inoculated with an equal volume of bacterial inoculum matching a 0.5 McFarland standard. […] The lowest concentration of antibiotic that prevents growth is the MIC.

[2] = test system: clinical isolates of N. gonorrhoeae; test: MIC by micro-broth dilution against N. gonorrhoeae clinical isolates; assay type: cell-based, Neisseria gonorrhoeae; conditions: Neisseria gonorrhoeae
Experimental: as §1

[3] = MTT cytotoxicity assay of ceftriaxone-based GUMBOS; assay type: cell-based; conditions: human, HeLa cells, read-out: Acute cytotoxicity (IC50)
Experimental: Cytotoxicity Assay of GUMBOS: Cytotoxicity of GUMBOS, unreacted mixtures, and antiseptics towards healthy cells were evaluated using the MTT assay, a colorimetric dye assay, according to manufacturer's instructions. […] Stock solutions of antimicrobial agents in cell medium (1% MeOH) were diluted to a known working concentration, doubly diluted, and transferred to seeded cells. […] Cells treated with only DMEM were used as a negative control. After incubation, 15 μL of MTT were added to each well and cells were further incubated for an hour. Sodium dodecyl sulfate dimethylformamide solution was added after this additional incubation time in order to dissolve the purple formazan crystals. Cell viability was quantified at 570 nm using a microplate spectrophotometer (Eppendorf PlateReader AF2200, Hauppauge, NY). Cell viability as a percentage was determined as the ratio between treated cells and untreated (control) cells taken as 100%.

[4] = test system: N. gonorrhoeae ATCC 49226; test: Kirby-Bauer disc diffusion against N. gonorrhoeae ATCC 49226; assay type: cell-based, Neisseria gonorrhoeae; conditions: for Zone size, mm (±SD): ATCC 49226, disc diffusion, 20-24 h
Experimental: (§2) Antimicrobial susceptibility testing: Kirby-Bauer disc diffusion susceptibility tests were used to determine zones of inhibition (ZOIs) for N. gonorrhoeae (ATCC 49226) and three clinical isolates obtained from Louisiana State University Health Sciences Center New Orleans HIV Outpatient Clinic. Kirby-Bauer disc diffusion is one of the CDC's preferred methods of testing the susceptibility of N. gonorrhoeae. Testing was performed according to CLSI recommended procedures. In this susceptibility test, 6 mm diameter blank paper discs were impregnated with known quantities of antimicrobial drug followed by evaporation of solvent; however, ceftriaxone, azithromycin and doxycycline antimicrobial susceptibility discs were purchased from Thermo Fisher Scientific. Impregnated discs were placed onto prepared nutrient agar plates that were inoculated with N. gonorrhoeae to give a confluent lawn of growth. Suspensions of these various strains were prepared in accordance with a 1.0 McFarland standard. Inoculated agar plates were incubated for 20-24 h at 37° C. in a 5% CO2 atmosphere.
(§3) Blank discs were loaded with 50 nmol of GUMBOS, respective constituent compounds and equivalent stoichiometric unreacted mixtures of octenidine and carbenicillin that are equimolar to the purchased ceftriaxone discs (Oxoid™, Thermo Fisher). After 20-24 h incubation, diameters of ZOIs were measured using a ruler. […] Antibacterial activity was improved for octenidine when chloride ions were exchanged for the antibiotic. […] This effect was not seen, however, for an unreacted mixture of the two drugs for either N. gonorrhoeae (ATCC 49226) or clinical isolates. The ZOIs of octenidine/carbenicillin were also larger than or equal to azithromycin and doxycycline ZOIs for N. gonorrhoeae (ATCC 49226). […] This is significant as resistance rates for azithromycin have increased worldwide. Among 57 countries reporting on azithromycin susceptibility, 28 (49%) reported>5% resistance. […] Ceftriaxone produced large ZOIs as the clinical population still remains susceptible to it in the USA (only 0.2% of isolates had elevated resistance to ceftriaxone in 2017).

[5] = test system: N. gonorrhoeae clinical isolates; test: Kirby-Bauer disc diffusion against N. gonorrhoeae clinical isolates; assay type: cell-based, Neisseria gonorrhoeae; conditions: three clinical isolates, 20-24 h
Experimental: as §2, §3

[6] = MTT cytotoxicity assay of octenidine/carbenicillin GUMBOS; assay type: cell-based; conditions: human
Experimental: (§4) Cytotoxicity assay: To determine cell viability, a colorimetric MTT dye assay (Promega Corp., Madison, WI, USA) was used, employing the manufacturer's instructions, as an indicator of cytotoxicity of GUMBOS towards healthy (HeLa) cells. Hela cells (ATCC CCL-2) grown in DMEM-reduced serum supplemented with 10% FBS were plated at a density of 1% 10^5 cells/mL (10^4 cells/well) in 96-well plates. Concentrations of therapeutic agents up to 500 μM (1% MeOH or DMSO) were doubly diluted in cell culture media and transferred to seeded cells. Cells were incubated for 15 min and 60 min at 37° C. in a 5% CO2 atmosphere. Cells treated with medium alone served as a negative control. At the end of the incubation period, 15 μL of MTT was added to each well and incubation continued for another hour. Absorbance was measured at 570 nm in a microplate spectrophotometer. All experiments were performed in quadruplicate. Cell viability as a percentage was determined as the ratio between treated cells and untreated (control) cells (taken as 100%).

HeLa cells = test: as above; assay type: cell-based; conditions: HeLa; for Relative toxicity to cervical cells (in words): after 15 min of incubation
Experimental: as §4

[7] = Parallel Artificial Membrane Permeability Assay (PAMPA); assay type: in vitro ADME
Experimental: Predictive intestinal permeability: PAMPA was employed as an in vitro model of passive, transcellular permeation. In this technique, a 96-well microtiter plate is used as a donor plate and a membrane/acceptor compartment coated with structured tri-layers of phospholipids is placed on top; this configuration is referred to as ‘sandwiched’. Known concentrations of octenidine/carbenicillin (100 μM in 1×PBS, 0.25% DMSO) were added to the donor plate while only buffer was placed in the acceptor plate. The assay was incubated for 5 h at room temperature and the acceptor plate was measured using a UV/Vis spectroscopy plate reader (Eppendorf PlateReader AF2200). Permeability coefficients (Pe) were calculated based on initial concentration in donor well (C0), concentration in donor well at 5 h (CD), concentration in acceptor well at 5 h (CA), volumes of donor (VD) and acceptor wells (VA), well filter area (A, 0.3 cm^2) and incubation time (t, 18000 s), as calculated using the relationship in Equation 1.

[8] = according to Hansch et al (1995); cited from earlier work

Compound	MIC [1]	MIC [2]	IC50 at 15 min ([3]; 15 min)	IC50 at 60 min ([3]; 60 min)	Zone size, mm (±SD) [4]	Zone size, mm (±SD) [5]	IC50 at 15 min [6]	IC50 at 60 min [6]	Relative toxicity to cervical cells (in words) (HeLa cells)	Permeability class [7]	Mean effective Pe (permeability coefficient) ([7]; 100 μM in 1×PBS, 0.25% DMSO, 5 h, room temperature)	Combination effect on antibacterial activity ([4]; N. gonorrhoeae (ATCC 49226) and clinical isolates, disc diffusion)	Antibacterial activity relative to azithromycin ([4]; disc diffusion ZOIs)	Cytotoxicity towards cervical cells (in words) (HeLa cells)	Log P [8]
CCCCCCCCN=c1ccn(CCCCCCCCCCn2ccc(=NCCCCCCCC)cc2)cc1 [Octenidine dihydrochloride, octenidine dihydrochloride]	3.1 µM	4.7 ± 1.8 µM	55 ± 1.29 µM	25.9 ± 1.17 µM	9 ± 1 mm	9 ± 0.3 mm	37.4 ± 2.8 µg/mL	16.1 ± 0.7 µg/mL	most toxic	–	–	–	–	–	–
CC1(C)S[C@@H]2[C@H](NC(=O)C(C(=O)[O-])c3ccccc3)C(=O)N2[C@H]1C(=O)[O-].CCCCCCCCNc1cc[n+](CCCCCCCCCC[n+]2ccc(NCCCCCCCC)cc2)cc1 [[OCT][CAR], octenidine/carbenicillin]	–	–	–	–	40 ± 0.6 mm	37 ± 4 mm	–	–	lower toxicity than the stoichiometric, unreacted mixture	high permeability (Pe values that are greater than 1.5% 10 cm/s are defined as high permeability)	3.78×10^−6 (±0.85) cm/s	additive effect	bioequivalent to azithromycin	non-toxic towards cervical cells	–
[H]/N=C(\N/C(=N/[H])NCCCCCCNC(=N)NC(=N)Nc1ccc(Cl)cc1)Nc1ccc(Cl)cc1 [chlorhexidine]	–	–	–	–	–	–	–	–	–	–	–	–	–	–	0.08
